These results are taken from US8846863B2, “Heat stable protein ingredients” (University of Tennessee Research Foundation, priority 2010, dated 2014).

This data set in a line: Thymol solubility / dispersion in deionized water. As to conditions: suspended at […] in deionized water. It counts as physicochemical.

As for `Cc1ccc(C(C)C)c(O)c1` [thymol, 2-Isopropyl-5-methylphenol], the Appearance of suspension result is “showed insoluble particulates”.
